± gives the standard deviation of the averaged measurements.
compound: C[C@]1(O)C[C@@H](c2nc(-c3ccc4ccc(-c5ccccc5)nc4c3)c3c(N)nccn32)C1 [OSI-906]; assay: surviving fraction relative to DMSO-only wells; higher = less growth inhibition; conditions: 1000 nM; exposure time: 5 days
Procedure, shortened: (§1)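 Five days of continuous inhibitor exposure, at 0.5, 1, 5, 10, 50, 100, 500 and 1000 nM, followed a 24-hour period after log-phase tumour cell lines were seeded at 250–500 cells per well in 384-well plates. Surviving fraction was derived from CellTiter-Glo luminescence relative to the median of DMSO-only wells. Plates were read after 10 minutes at room temperature, and lines screened three times were kept only if replicate Pearson r >0.7 and median Z' >0.3.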

| Test System | surviving fraction |
| --- | --- |
| CAL72 BONE | 0.861 ± 0.082 |
| G292 BONE | 0.553 ± 0.045 |

compound: COc1cc2ncnc(Nc3ccc(F)c(Cl)c3)c2cc1OCCCN1CCOCC1 [GEFITINIB]; assay: as above; conditions: 0.5 nM; exposure time: 5 days
Procedure, shortened: as §1

| Test System | surviving fraction |
| --- | --- |
| SCC36 HEADNECK | 1.08 ± 0.091 |
| JIMT1 BREAST | 1.02 ± 0.051 |
| CAL72 BONE | 1.01 ± 0.11 |
| G292 BONE | 0.976 ± 0.023 |

same assay, conditions: 1 nM; exposure time: 5 days

| Test System | surviving fraction |
| --- | --- |
| SCC36 HEADNECK | 1.02 ± 0.023 |
| JIMT1 BREAST | 1.02 ± 0.016 |
| CAL72 BONE | 1.02 ± 0.088 |
| G292 BONE | 1.03 ± 0.045 |

same assay, conditions: 5 nM; exposure time: 5 days

| Test System | surviving fraction |
| --- | --- |
| SCC36 HEADNECK | 1.13 ± 0.057 |
| JIMT1 BREAST | 1.03 ± 0.028 |
| CAL72 BONE | 1.05 ± 0.099 |
| G292 BONE | 1.04 ± 0.035 |

same assay, conditions: 10 nM; exposure time: 5 days

| Test System | surviving fraction |
| --- | --- |
| SCC36 HEADNECK | 0.972 ± 0.057 |
| JIMT1 BREAST | 1.02 ± 0.022 |
| CAL72 BONE | 1.02 ± 0.082 |
| G292 BONE | 1.059 ± 0.0083 |

same assay, conditions: 50 nM; exposure time: 5 days

| Test System | surviving fraction |
| --- | --- |
| SCC36 HEADNECK | 0.735 ± 0.11 |
| JIMT1 BREAST | 1.06 ± 0.027 |
| CAL72 BONE | 1.11 ± 0.054 |
| G292 BONE | 1.03 ± 0.052 |

same assay, conditions: 100 nM; exposure time: 5 days

| Test System | surviving fraction |
| --- | --- |
| SCC36 HEADNECK | 0.643 ± 0.1 |
| JIMT1 BREAST | 1.03 ± 0.046 |
| CAL72 BONE | 1.13 ± 0.098 |
| G292 BONE | 1.04 ± 0.04 |

same assay, conditions: 500 nM; exposure time: 5 days

| Test System | surviving fraction |
| --- | --- |
| SCC36 HEADNECK | 0.45 ± 0.03 |
| JIMT1 BREAST | 0.811 ± 0.043 |
| CAL72 BONE | 1.07 ± 0.074 |
| G292 BONE | 0.954 ± 0.038 |

same assay, conditions: 1000 nM; exposure time: 5 days

| Test System | surviving fraction |
| --- | --- |
| SCC36 HEADNECK | 0.397 ± 0.05 |
| JIMT1 BREAST | 0.773 ± 0.047 |
| CAL72 BONE | 1.05 ± 0.11 |
| G292 BONE | 0.9402 ± 0.0094 |

compound: CC(=O)c1c(C)c2cnc(Nc3ccc(N4CCNCC4)cn3)nc2n(C2CCCC2)c1=O; assay: as above; conditions: 0.5 nM; exposure time: 5 days
Procedure, shortened: as §1

| Test System | surviving fraction |
| --- | --- |
| SCC36 HEADNECK | 1.02 ± 0.1 |
| JIMT1 BREAST | 0.959 ± 0.013 |
| CAL72 BONE | 1.1 ± 0.066 |
| G292 BONE | 1 ± 0.068 |

same assay, conditions: 1 nM; exposure time: 5 days

| Test System | surviving fraction |
| --- | --- |
| SCC36 HEADNECK | 1.01 ± 0.015 |
| JIMT1 BREAST | 0.9905 ± 0.0018 |
| CAL72 BONE | 1.12 ± 0.061 |
| G292 BONE | 0.976 ± 0.033 |

same assay, conditions: 5 nM; exposure time: 5 days

| Test System | surviving fraction |
| --- | --- |
| SCC36 HEADNECK | 1.17 ± 0.064 |
| JIMT1 BREAST | 0.993 ± 0.024 |
| CAL72 BONE | 1.12 ± 0.025 |
| G292 BONE | 1 ± 0.024 |

same assay, conditions: 10 nM; exposure time: 5 days

| Test System | surviving fraction |
| --- | --- |
| SCC36 HEADNECK | 1.11 ± 0.056 |
| JIMT1 BREAST | 0.964 ± 0.027 |
| CAL72 BONE | 1.13 ± 0.05 |
| G292 BONE | 1.02 ± 0.045 |

same assay, conditions: 50 nM; exposure time: 5 days

| Test System | surviving fraction |
| --- | --- |
| SCC36 HEADNECK | 1.1 ± 0.084 |
| JIMT1 BREAST | 1.1 ± 0.03 |
| CAL72 BONE | 1.13 ± 0.037 |
| G292 BONE | 0.951 ± 0.062 |

same assay, conditions: 100 nM; exposure time: 5 days

| Test System | surviving fraction |
| --- | --- |
| SCC36 HEADNECK | 1.07 ± 0.025 |
| JIMT1 BREAST | 1 ± 0.031 |
| CAL72 BONE | 1.14 ± 0.022 |
| G292 BONE | 0.929 ± 0.058 |

same assay, conditions: 500 nM; exposure time: 5 days

| Test System | surviving fraction |
| --- | --- |
| SCC36 HEADNECK | 0.923 ± 0.094 |
| JIMT1 BREAST | 1.05 ± 0.014 |
| CAL72 BONE | 1.14 ± 0.078 |
| G292 BONE | 0.678 ± 0.025 |

same assay, conditions: 1000 nM; exposure time: 5 days

| Test System | surviving fraction |
| --- | --- |
| SCC36 HEADNECK | 0.897 ± 0.025 |
| JIMT1 BREAST | 1.01 ± 0.032 |
| CAL72 BONE | 1.07 ± 0.048 |
| G292 BONE | 0.678 ± 0.036 |

compound: COCC[n+]1c2c(n(Cc3cnccn3)c1C)C(=O)c1ccccc1C2=O [YM155]; assay: as above; conditions: 0.5 nM; exposure time: 5 days
Procedure, shortened: as §1

| Test System | surviving fraction |
| --- | --- |
| SCC36 HEADNECK | 1.01 ± 0.035 |
| JIMT1 BREAST | 0.971 ± 0.033 |
| CAL72 BONE | 1.05 ± 0.081 |
| G292 BONE | 0.967 ± 0.04 |

same assay, conditions: 1 nM; exposure time: 5 days

| Test System | surviving fraction |
| --- | --- |
| SCC36 HEADNECK | 1.02 ± 0.042 |
| JIMT1 BREAST | 0.992 ± 0.021 |
| CAL72 BONE | 1.01 ± 0.097 |
| G292 BONE | 1 ± 0.047 |

same assay, conditions: 5 nM; exposure time: 5 days

| Test System | surviving fraction |
| --- | --- |
| SCC36 HEADNECK | 1.06 ± 0.14 |
| JIMT1 BREAST | 0.888 ± 0.033 |
| CAL72 BONE | 0.347 ± 0.082 |
| G292 BONE | 0.654 ± 0.024 |

same assay, conditions: 10 nM; exposure time: 5 days

| Test System | surviving fraction |
| --- | --- |
| SCC36 HEADNECK | 0.817 ± 0.07 |
| JIMT1 BREAST | 0.543 ± 0.056 |
| CAL72 BONE | 0.202 ± 0.034 |

Reference: the supplement of paper PMC6045584
